In US12378247B2, “Mesylate salt of para-topolin, compositions containing said salt and use thereof” (USTAV EXPERIMENTALNI BOTANIKY AV CR, V. V. I., priority 2020, dated 2025):

Columns and labels:
[1] = ORAC (Oxygen Radical Absorbance Capacity), ability to scavenge free radicals; format: biochemical; settings: n = 3
Protocol: The ability of the substance to scavenge free radicals in vitro was determined using the ORAC (Oxygen Radical Absorbance Capacity) method. Briefly, 100 μl of fluorescein ([…]) and 25 μl of tested substance solution were pipetted into each well of a 96-well microtiter plate preheated to 37° C. The reaction itself was started by the addition of 25 μL 250 mM AAPH. After shaking for 5 s, the fluorescence (Ex. 485 nm, Em. 510 nm) was read every 3 min for 90 min using an Infinite 200 instrument (TECAN, Switzerland). The area under the curve was used to express the antioxidant capacity relative to trolox, which is used as a standard. […] Such activities are likely to be closely related to the electron-rich C6-hydroxybenzylamino substituent system.

[2] = test system: Human diploid fibroblast BJ; experiment: MTT cytotoxicity assay in normal fibroblasts; format: cell-based; settings: 72 hours
Protocol: MTT (metabolic tetrazolium toxicity) assay is a standard colorimetric assay for evaluation of cytotoxicity. Mitochondrial dehydrogenase activity converts yellow MTT into violet formazan which is measured by means of spectrometry. Human diploid fibroblast BJ (passage 18-22) were seeded into 96-well plate (5.000 cells per well). After 6 hours cultivation medium (DMEM with 5 g/l glucose, 2 mM glutamine, 100 U/ml penicillin, […] streptomycin, 10% fetal calf serum and sodium bicarbonate) was replaced with the cultivation medium containing test compounds in concentration range of 0-200 μM. Highest concentration was adjusted if the solubility of the compound was limiting. Every concentration was tested in pentaplicate. MTT was added to the cells after 72 hours incubation (final concentration 0.5 mg/ml) and incubation continued for another 3 hours. MTT was solubilised by DMSO and absorbance at 570 nm was measured. Growth inhibition (GI) was estimated using the following equitation: GI=(mean A drug exposed wells-mean Ablank/mean Acontrol wells−mean Ablank)×100%. The GI20 value, the drug concentration causing 20% decrease in mitochondrial dehydrogenase activity, was calculated from the obtained dose response curves.

Rat glioma C6 cells = experiment: Anti-inflammatory activity: isoproterenol-induced intracellular cAMP synthesis; format: cell-based; settings: isoproterenol-induced cAMP, C6 cells
Protocol: The anti-inflammatory activity of para-topolin and para-topolin mesylate was determined; cytokinin kinetin was also evaluated as a control. Rat glioma C6 cells (ATCC No. CCL107) were cultured in a monolayer in chemically defined beser medium containing Ham's F10/minimal essential medium (1:1 v/v), 2 mM L-glutamine, 1% (v/v). Minimum vitamins of essential medium (100×), 1% (v/v) minimum essential amino acids (100×), 100 U/ml penicillin, […] streptomycin and 30 nM sodium selenite. Incubation was performed at 37° C. in a 100% humidified atmosphere. The assays were performed in logarithmic growth phase at a density of 2.5×10^5 cells/cm^2. Intracellular cAMP synthesis was induced by the addition of 5 mM (−)-isoproterenol; at the same time, various concentrations of tested compounds were added at the same time as (−)-isoproterenol. After 30 minutes of incubation, the cellular amount of CAMP was determined by ELISA (cAMP-enzyme immunoassay from Amersham). IC50 values were determined from the […] dose-response curve.

| SMILES | ORAC Average(TE), Trolox equivalents on equimolar basis [1] | Cytotoxicity for Human Diploid Fibroblasts GI20 [2] | Anti-inflammatory activity (in words) (Rat glioma C6 cells) |
| --- | --- | --- | --- |
| Oc1ccccc1CNc1ncnc2nc[nH]c12 [6-(2-hydroxybenzylamino)purine (oT), 6-(2-hydroxybenzylamino)purine] | 7.026 TE |  |  |
| Oc1cccc(CNc2ncnc3nc[nH]c23)c1 [6-(3-hydroxybenzylamino)purine (mT), 6-(3-hydroxybenzylamino)purine] | 4.509 TE |  |  |
| OC[C@H]1O[C@@H](n2cnc3c(NCc4ccccc4)ncnc32)[C@H](O)[C@@H]1O [6-(benzylamino)purine riboside] |  | 1700 nM |  |
| c1coc(CNc2ncnc3nc[nH]c23)c1 [6-furfurylaminopurine (kinetin), 6-furfurylaminopurine] |  | >167000 nM | inactive |
| OC[C@H]1O[C@@H](n2cnc3c(NCc4ccco4)ncnc32)[C@H](O)[C@@H]1O [6-furfurylaminopurine riboside] |  | 2100 nM |  |
